# Results: ChEMBL document CHEMBL4229379, “Synthesis and structure-activity relationship of novel bisindole amidines active against MDR Gram-positive and Gram-negative bacteria” (Eur J Med Chem, 2018)
# Legend:
# [1] = tested on: Escherichia coli; assay: Antibacterial activity against extended-spectrum beta-lactamase deficient Escherichia coli 12-14 after 18 hrs by CLSI broth microdilution method; format: functional; conditions: 12-14, 18 h
# [2] = tested on: Klebsiella pneumoniae; assay: Antibacterial activity against extended-spectrum beta-lactamase harboring Klebsiella pneumoniae 12-8 after 18 hrs by CLSI broth microdilution method; format: functional; conditions: 12-8, 18 h
# [3] = tested on: Enterobacter cloacae; assay: Antibacterial activity against Enterobacter cloacae ATCC 43560 after 18 hrs by CLSI broth microdilution method; format: functional; conditions: ATCC 43560, 18 h
# [4] = tested on: Enterococcus faecalis; assay: Antibacterial activity against vancomycin-resistant Enterococcus faecalis 09-9 after 18 hrs by CLSI broth microdilution method; format: functional; conditions: 09-9, 18 h
# [5] = tested on: Pseudomonas aeruginosa; assay: Antibacterial activity against Pseudomonas aeruginosa PAO1 after 18 hrs by CLSI broth microdilution method; format: functional; conditions: PAO1, 18 h
# [6] = tested on: Enterococcus faecalis; assay: Antibacterial activity against vancomycin-resistant Enterococcus faecalis ATCC 51299 after 18 hrs by CLSI broth microdilution method; format: functional; conditions: ATCC 51299, 18 h
# [7] = tested on: Stenotrophomonas maltophilia; assay: Antibacterial activity against Stenotrophomonas maltophilia ATCC 13636 after 18 hrs by CLSI broth microdilution method; format: functional; conditions: ATCC 13636, 18 h
# [8] = tested on: Klebsiella pneumoniae; assay: Antibacterial activity against extended-spectrum beta-lactamase harboring Klebsiella pneumoniae ATCC 700603 after 18 hrs by CLSI broth microdilution method; format: functional; conditions: Klebsiella pneumoniae, 700603, 18 h
# [9] = tested on: Staphylococcus epidermidis; assay: Antibacterial activity against methicillin-sensitive Staphylococcus epidermidis ATCC 12228 after 18 hrs by CLSI broth microdilution method; format: functional; conditions: ATCC 12228, 18 h
# [10] = tested on: Enterococcus faecium; assay: Antibacterial activity against vancomycin-resistant Enterococcus faecium ATCC 700221 after 18 hrs by CLSI broth microdilution method; format: functional; conditions: ATCC 700221, 18 h
# [11] = tested on: Providencia rettgeri; assay: Antibacterial activity against Providencia rettgeri ATCC 31052 after 18 hrs by CLSI broth microdilution method; format: functional; conditions: ATCC 31052, 18 h
# [12] = tested on: Staphylococcus aureus; assay: Antibacterial activity against methicillin-sensitive Staphylococcus aureus 15 after 18 hrs by CLSI broth microdilution method; format: functional; conditions: Staphylococcus aureus, 15, 18 h
# [13] = tested on: Enterococcus faecium; assay: Antibacterial activity against vancomycin-sensitive Enterococcus faecium 12-3 after 18 hrs by CLSI broth microdilution method; format: functional; conditions: 12-3, 18 h
# [14] = tested on: Proteus vulgaris; assay: Antibacterial activity against Proteus vulgaris ATCC 29905 after 18 hrs by CLSI broth microdilution method; format: functional; conditions: ATCC 29905, 18 h
# [15] = tested on: Klebsiella pneumoniae; assay: Antibacterial activity against extended-spectrum beta-lactamase deficient Klebsiella pneumoniae 12-4 after 18 hrs by CLSI broth microdilution method; format: functional; conditions: 12-4, 18 h
# [16] = tested on: Enterococcus faecalis; assay: Antibacterial activity against vancomycin-sensitive Enterococcus faecalis ATCC 29212 after 18 hrs by CLSI broth microdilution method; format: functional; conditions: ATCC 29212, 18 h
# [17] = tested on: Staphylococcus aureus; assay: Antibacterial activity against methicillin-sensitive Staphylococcus aureus ATCC 29213 after 18 hrs by CLSI broth microdilution method; format: functional; conditions: ATCC 29213, 18 h
# [18] = tested on: Staphylococcus epidermidis; assay: Antibacterial activity against methicillin-sensitive Staphylococcus epidermidis 12-6 after 18 hrs by CLSI broth microdilution method; format: functional; conditions: 12-6, 18 h
# [19] = Cytotoxicity against HEK293T cells assessed as reduction in cell viability after 48 hrs by MTS assay; format: cell-based, HEK-293T; conditions: human
# [20] = tested on: Escherichia coli; assay: Antibacterial activity against extended-spectrum beta-lactamase harboring Escherichia coli 12-15 after 18 hrs by CLSI broth microdilution method; format: functional; conditions: 12-15, 18 h
# [21] = tested on: Klebsiella aerogenes; assay: Antibacterial activity against Enterobacter aerogenes ATCC 13048 after 18 hrs by CLSI broth microdilution method; format: functional; conditions: ATCC 13048, 18 h
# [22] = tested on: Klebsiella pneumoniae; assay: Antibacterial activity against extended-spectrum beta-lactamase deficient Klebsiella pneumoniae 7 after 18 hrs by CLSI broth microdilution method; format: functional; conditions: Klebsiella pneumoniae, 7, 18 h
# [23] = tested on: Staphylococcus aureus; assay: Antibacterial activity against methicillin-sensitive Staphylococcus aureus 12-28 after 18 hrs by CLSI broth microdilution method; format: functional; conditions: 12-28, 18 h
# [24] = tested on: Enterococcus faecium; assay: Antibacterial activity against vancomycin-resistant Enterococcus faecium 12-1 after 18 hrs by CLSI broth microdilution method; format: functional; conditions: 12-1, 18 h
# [25] = tested on: Escherichia coli; assay: Antibacterial activity against extended-spectrum beta-lactamase deficient Escherichia coli ATCC 25922 after 18 hrs by CLSI broth microdilution method; format: functional; conditions: ATCC 25922, 18 h
# [26] = tested on: Staphylococcus aureus; assay: Antibacterial activity against methicillin-resistant Staphylococcus aureus ATCC 33591 after 18 hrs by CLSI broth microdilution method; format: functional; conditions: ATCC 33591, 18 h
# [27] = tested on: Staphylococcus aureus; assay: Antibacterial activity against methicillin-resistant Staphylococcus aureus 12-33 after 18 hrs by CLSI broth microdilution method; format: functional; conditions: 12-33, 18 h
# [28] = tested on: Staphylococcus epidermidis; assay: Antibacterial activity against methicillin-resistant Staphylococcus epidermidis 12-8 after 18 hrs by CLSI broth microdilution method; format: functional; conditions: 12-8, 18 h
# [29] = tested on: Escherichia coli; assay: Antibacterial activity against extended-spectrum beta-lactamase deficient Escherichia coli 1515 after 18 hrs by CLSI broth microdilution method; format: functional; conditions: Escherichia coli, 1515, 18 h
# [30] = tested on: Pseudomonas aeruginosa; assay: Antibacterial activity against Pseudomonas aeruginosa 12-16 after 18 hrs by CLSI broth microdilution method; format: functional; conditions: 12-16, 18 h
# [31] = tested on: Acinetobacter calcoaceticus; assay: Antibacterial activity against Acinetobacter calcoaceticus ATCC 19606 after 18 hrs by CLSI broth microdilution method; format: functional; conditions: ATCC 19606, 18 h
# [32] = tested on: Proteus mirabilis; assay: Antibacterial activity against Proteus mirabilis 12-6 after 18 hrs by CLSI broth microdilution method; format: functional; conditions: 12-6, 18 h
# [33] = tested on: Enterococcus faecalis; assay: Antibacterial activity against vancomycin-sensitive Enterococcus faecalis 12-5 after 18 hrs by CLSI broth microdilution method; format: functional; conditions: 12-5, 18 h
# [34] = tested on: Serratia marcescens; assay: Antibacterial activity against Serratia marcescens ATCC 21074 after 18 hrs by CLSI broth microdilution method; format: functional; conditions: ATCC 21074, 18 h
# [35] = tested on: Pseudomonas aeruginosa; assay: Antibacterial activity against Pseudomonas aeruginosa ATCC 27853 after 18 hrs by CLSI broth microdilution method; format: functional; conditions: ATCC 27853, 18 h
# [36] = tested on: Klebsiella pneumoniae; assay: Antibacterial activity against new delhi metallo-beta-lactamase-1 harboring Klebsiella pneumoniae ATCC BAA-2146 after 18 hrs by CLSI broth microdilution method; format: functional; conditions: ATCC BAA-2146, 18 h
# [37] = tested on: Citrobacter freundii; assay: Antibacterial activity against Citrobacter freundii ATCC 43864 after 18 hrs by CLSI broth microdilution method; format: functional; conditions: ATCC 43864, 18 h
structure (smiles),measurement,setting,value
CC(C)NC(=N)c1ccc2cc(-c3ccc(-c4cc5ccc(C(=N)NC(C)C)cc5[nH]4)cc3)[nH]c2c1,MIC,[1],4 µg/mL
same,MIC,[2],2 µg/mL
same,MIC,[3],4 µg/mL
same,MIC,[4],0.25 µg/mL
same,MIC,[5],4 µg/mL
same,MIC,[6],0.25 µg/mL
same,MIC,[7],4 µg/mL
same,MIC,[8],8 µg/mL
same,MIC,[9],0.125 µg/mL
same,MIC,[10],0.25 µg/mL
same,MIC,[11],4 µg/mL
same,MIC,[12],0.125 µg/mL
same,MIC,[13],0.25 µg/mL
same,MIC,[14],4 µg/mL
same,MIC,[15],2 µg/mL
same,MIC,[16],0.25 µg/mL
same,MIC,[17],0.125 µg/mL
same,MIC,[18],0.125 µg/mL
same,CC50 at 48 h,[19],12.3 µg/mL
same,MIC,[20],2 µg/mL
same,MIC,[21],4 µg/mL
same,MIC,[22],2 µg/mL
same,MIC,[23],0.125 µg/mL
same,MIC,[24],0.25 µg/mL
same,MIC,[25],2 µg/mL
same,MIC,[26],0.125 µg/mL
same,MIC,[27],0.125 µg/mL
same,MIC,[28],0.125 µg/mL
same,MIC,[29],4 µg/mL
same,MIC,[30],8 µg/mL
same,MIC,[31],16 µg/mL
same,MIC,[32],16 µg/mL
same,MIC,[33],0.5 µg/mL
same,MIC,[34],8 µg/mL
same,MIC,[35],2 µg/mL
same,MIC,[36],4 µg/mL
same,MIC,[37],2 µg/mL
CCC(C)NC(=N)c1ccc2cc(-c3cncc(-c4cc5ccc(C(=N)NC(C)CC)cc5[nH]4)c3)[nH]c2c1 (stereo unspecified),MIC,[1],> 64 µg/mL
same,MIC,[2],> 64 µg/mL
same,MIC,[3],> 64 µg/mL
same,MIC,[4],> 64 µg/mL
same,MIC,[5],> 64 µg/mL
same,MIC,[6],> 64 µg/mL
same,MIC,[7],> 64 µg/mL
same,MIC,[8],> 64 µg/mL
same,MIC,[9],8 µg/mL
same,MIC,[10],> 64 µg/mL
same,MIC,[11],> 64 µg/mL
same,MIC,[12],16 µg/mL
same,MIC,[13],> 64 µg/mL
same,MIC,[14],> 64 µg/mL
same,MIC,[15],> 64 µg/mL
same,MIC,[16],> 64 µg/mL
same,MIC,[17],8 µg/mL
same,MIC,[18],8 µg/mL
same,CC50 at 48 h,[19],22.8 µg/mL
same,MIC,[20],> 64 µg/mL
same,MIC,[21],> 64 µg/mL
same,MIC,[22],> 64 µg/mL
same,MIC,[23],16 µg/mL
same,MIC,[24],64 µg/mL
same,MIC,[25],> 64 µg/mL
same,MIC,[26],8 µg/mL
same,MIC,[27],16 µg/mL
same,MIC,[28],8 µg/mL
same,MIC,[29],> 64 µg/mL
same,MIC,[30],> 64 µg/mL
same,MIC,[31],> 64 µg/mL
same,MIC,[32],> 64 µg/mL
same,MIC,[33],> 64 µg/mL
same,MIC,[34],> 64 µg/mL
same,MIC,[35],> 64 µg/mL
same,MIC,[36],> 64 µg/mL
same,MIC,[37],> 64 µg/mL
CCC(CC)NC(=N)c1ccc2cc(-c3ccc(-c4cc5ccc(C(=N)NC(CC)CC)cc5[nH]4)cc3)[nH]c2c1,MIC,[1],8 µg/mL
same,MIC,[2],8 µg/mL
same,MIC,[3],8 µg/mL
same,MIC,[4],4 µg/mL
same,MIC,[5],64 µg/mL
same,MIC,[6],4 µg/mL
same,MIC,[7],16 µg/mL
same,MIC,[8],16 µg/mL
same,MIC,[9],0.5 µg/mL
same,MIC,[10],2 µg/mL
same,MIC,[11],8 µg/mL
same,MIC,[12],2 µg/mL
same,MIC,[13],2 µg/mL
same,MIC,[14],8 µg/mL
same,MIC,[15],8 µg/mL
same,MIC,[16],2 µg/mL
same,MIC,[17],1 µg/mL
same,MIC,[18],0.5 µg/mL
same,CC50 at 48 h,[19],3.42 µg/mL
same,MIC,[20],8 µg/mL
same,MIC,[21],8 µg/mL
same,MIC,[22],8 µg/mL
same,MIC,[23],2 µg/mL
same,MIC,[24],2 µg/mL
same,MIC,[25],8 µg/mL
same,MIC,[26],1 µg/mL
same,MIC,[27],1 µg/mL
same,MIC,[28],0.5 µg/mL
same,MIC,[29],8 µg/mL
same,MIC,[30],32 µg/mL
same,MIC,[31],16 µg/mL
same,MIC,[32],16 µg/mL
same,MIC,[33],4 µg/mL
same,MIC,[34],32 µg/mL
same,MIC,[35],16 µg/mL
same,MIC,[36],8 µg/mL
same,MIC,[37],8 µg/mL
